Like-named read-outs stand apart in the source and are kept apart here.
Tests used:
SARS-CoV-2 nsp14 MTase = SARS-CoV-2 nsp14 MTase (Severe acute respiratory syndrome coronavirus 2, UniProt P0DTD1); assay: biochemical; type: biochemical
NSD2 = biological target: T1, NSD2 (Homo sapiens, UniProt O96028); assay: human MTase selectivity panel; type: biochemical
T1 sequence (O96028 1-1365): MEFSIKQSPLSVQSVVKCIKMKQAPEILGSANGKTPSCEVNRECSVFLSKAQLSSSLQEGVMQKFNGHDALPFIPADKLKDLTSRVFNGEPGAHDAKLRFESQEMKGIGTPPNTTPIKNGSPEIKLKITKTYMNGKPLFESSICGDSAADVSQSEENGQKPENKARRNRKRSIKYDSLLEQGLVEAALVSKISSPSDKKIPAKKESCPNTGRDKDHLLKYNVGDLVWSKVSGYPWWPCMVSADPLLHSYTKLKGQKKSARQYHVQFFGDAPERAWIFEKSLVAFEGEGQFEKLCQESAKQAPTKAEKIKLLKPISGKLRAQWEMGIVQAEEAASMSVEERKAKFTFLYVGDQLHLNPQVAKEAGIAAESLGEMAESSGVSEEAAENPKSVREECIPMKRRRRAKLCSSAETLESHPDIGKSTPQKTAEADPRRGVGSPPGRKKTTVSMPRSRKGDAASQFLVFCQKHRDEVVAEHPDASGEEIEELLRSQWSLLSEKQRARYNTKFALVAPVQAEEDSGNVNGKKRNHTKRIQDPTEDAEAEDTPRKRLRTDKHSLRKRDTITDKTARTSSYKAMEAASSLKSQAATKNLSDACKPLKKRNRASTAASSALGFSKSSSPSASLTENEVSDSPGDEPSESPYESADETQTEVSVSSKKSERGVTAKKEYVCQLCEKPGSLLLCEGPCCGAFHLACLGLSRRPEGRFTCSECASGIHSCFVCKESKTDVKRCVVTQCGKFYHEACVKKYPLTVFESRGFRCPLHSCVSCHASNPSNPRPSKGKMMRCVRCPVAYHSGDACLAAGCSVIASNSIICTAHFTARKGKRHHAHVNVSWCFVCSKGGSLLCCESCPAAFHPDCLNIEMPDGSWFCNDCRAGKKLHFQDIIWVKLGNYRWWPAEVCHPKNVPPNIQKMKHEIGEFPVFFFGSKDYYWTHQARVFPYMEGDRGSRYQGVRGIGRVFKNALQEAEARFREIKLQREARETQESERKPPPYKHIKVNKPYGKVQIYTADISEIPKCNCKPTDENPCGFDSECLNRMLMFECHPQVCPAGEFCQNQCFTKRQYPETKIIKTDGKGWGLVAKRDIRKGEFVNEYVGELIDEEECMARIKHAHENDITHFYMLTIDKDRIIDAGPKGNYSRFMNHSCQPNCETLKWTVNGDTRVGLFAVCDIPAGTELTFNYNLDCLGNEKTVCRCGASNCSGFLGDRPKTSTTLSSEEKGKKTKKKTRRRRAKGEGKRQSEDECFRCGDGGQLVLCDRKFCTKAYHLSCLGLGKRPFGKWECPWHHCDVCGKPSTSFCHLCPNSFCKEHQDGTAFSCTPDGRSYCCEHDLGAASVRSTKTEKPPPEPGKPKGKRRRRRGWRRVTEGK

nsp14 = nsp14 (Severe acute respiratory syndrome coronavirus 2, UniProt P0DTD1); assay: surface plasmon resonance (SPR) binding to immobilized full-length biotinylated nsp14; parameters: species or system SARS-CoV-2; conditions: n = 3
Experimental: For Surface Plasmon Resonance (SPR), the full-length biotinylated nsp14 was immobilized on the flow cell of a SA sensor chip in 1x HBS-EP buffer, achieving a response of 8000 RU. The assay was performed using the same buffer but with 2% DMSO added. Single-cycle kinetics were employed with a contact time of 60 seconds and a dissociation time of 120 seconds, at a flow rate of 75 µL/min. NSC620333 was tested at a concentration of 10 µM as the highest concentration, and a dilution factor of 0.25 was used to yield five different concentrations.

PRMT6 = PRMT6 (Homo sapiens, UniProt Q96LA8); assay: human MTase selectivity panel; type: biochemical
SUV39H1 = biological target: T2, SUV39H1 (Homo sapiens, UniProt O43463); assay: human MTase selectivity panel; type: biochemical
T2 sequence (O43463 1-412): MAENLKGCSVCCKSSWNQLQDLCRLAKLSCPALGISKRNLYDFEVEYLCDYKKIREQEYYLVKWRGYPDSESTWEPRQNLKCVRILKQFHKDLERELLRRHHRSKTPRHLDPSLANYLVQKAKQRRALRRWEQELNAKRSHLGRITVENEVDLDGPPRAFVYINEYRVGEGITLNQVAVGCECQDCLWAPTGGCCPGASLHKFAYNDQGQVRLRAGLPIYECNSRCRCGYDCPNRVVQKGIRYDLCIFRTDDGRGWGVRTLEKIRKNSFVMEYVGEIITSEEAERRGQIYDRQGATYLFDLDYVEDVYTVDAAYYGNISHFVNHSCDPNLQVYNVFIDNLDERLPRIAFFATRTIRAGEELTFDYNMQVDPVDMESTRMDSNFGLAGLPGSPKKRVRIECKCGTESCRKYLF

[1] = average ± SD, read-out: Activity (%) at 10 µM Average
[2] = read-out: Activity (%) at 10 µM Replicate 1
[3] = read-out: Activity (%) at 10 µM Replicate 2
[4] = read-out: Activity (%) at 10 µM Replicate 3

PRMT6, sequence (Q96LA8 whole entry): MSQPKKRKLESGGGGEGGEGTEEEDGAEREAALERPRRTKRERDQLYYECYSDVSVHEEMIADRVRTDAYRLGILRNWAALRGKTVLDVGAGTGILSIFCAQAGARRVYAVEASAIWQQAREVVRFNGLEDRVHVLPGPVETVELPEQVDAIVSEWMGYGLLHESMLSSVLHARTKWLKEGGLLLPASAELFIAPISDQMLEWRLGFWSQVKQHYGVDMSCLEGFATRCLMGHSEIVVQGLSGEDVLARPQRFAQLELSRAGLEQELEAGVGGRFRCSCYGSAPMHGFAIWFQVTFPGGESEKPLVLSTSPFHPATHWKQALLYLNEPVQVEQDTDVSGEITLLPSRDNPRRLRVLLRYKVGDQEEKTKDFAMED

Nc1ncnc2c1ncn2[C@@H]1O[C@H](CSCc2ccc(Cl)cc2)[C@@H](O)[C@H]1O [NSC620333]
IC50 (SARS-CoV-2 nsp14 MTase; IC50 (µM), nsp14 MTase activity, high-throughput screening follow-up): 5 µM | IC50 (SARS-CoV-2 nsp14 MTase; IC50, at Km of both SAM and RNA substrates, mean ± SD, n = 3): 5.3 ± 1 µM | mechanism of action with respect to RNA substrate (SARS-CoV-2 nsp14 MTase; IC50 at varying RNA (31 to 500 nM), fixed SAM 1.25 µM): noncompetitive | mechanism of action with respect to SAM (SARS-CoV-2 nsp14 MTase; IC50 at varying SAM (0.15 to 2.5 µM), fixed RNA 0.25 µM): SAM competitive | inhibition of nsp14, batch retesting (SARS-CoV-2 nsp14 MTase; custom-ordered, highly purified (>99%) sample): more pronounced inhibition | inhibition at 100 µM (SARS-CoV-2 nsp14 MTase; read-out: nsp14 Inhibition % (100µM) Exp 1): 100% | inhibition at 100 µM (SARS-CoV-2 nsp14 MTase; read-out: nsp14 Inhibition % (100µM) Exp 2): 99% | activity at 10 µM (NSD2; [1]): 92 ± 7% | activity at 10 µM (NSD2; [2]): 100% | activity at 10 µM (NSD2; [3]): 86% | activity at 10 µM (NSD2; [4]): 90% | Kd (nsp14; SPR single-cycle kinetics, read-out: KD (kinetic fitting)): 427 ± 84 nM | Kd (nsp14; SPR steady-state 1:1 binding model, read-out: steady-state KD): 544 ± 22 nM | activity at 10 µM (PRMT6; [1]): 100 ± 3% | activity at 10 µM (PRMT6; [2]): 97% | activity at 10 µM (PRMT6; [3]): 99% | activity at 10 µM (PRMT6; [4]): 103% | activity at 10 µM (SUV39H1; [1]): 96 ± 4% | activity at 10 µM (SUV39H1; [2]): 99% | activity at 10 µM (SUV39H1; [3]): 91% | activity at 10 µM (SUV39H1; [4]): 97%
